Measured values: patent publication US4500511A, “Antiinflammatory and analgesic gel” (Grelan Pharmaceutical Co., Ltd., priority 1982, dated 1985)

Tested on: vascular permeability
Assay: Suppression of increased vascular permeability (λ-carrageenin, dye leakage) in guinea pigs
Assay type: in vivo, Hartley strain albino guinea pigs
Conditions: oral, 2.0 mg/kg; for Suppression rate: *p < 0.05
Description: The hair on the back of Hartley strain albino guinea pigs (male; weighing 235 to 270 g; in groups of 7 animals) was removed with an electric hair clipper and an electric razor, circles, 2.5 cm in diameter (4.91 cm^2 in area), were drawn symmetrically on both sides of the medium line, and 50 mg of each test external preparation was applied to the area of each circle. Three hours after application, 0.1 ml of 0.1% λ-carrageeninsolution was injected intradermally into the center of each circle, followed by injection of 0.5 ml/100 g of body weight of 0.5% Pontamine sky blue solution into the vein of the penis. Three hours after injection, each animal was sacrificed by decapitation, exsanguinated and flayed, and the area of dye leakage (major axis x minor axis) on the inner side of the skin was measured with slide calipers.
The external preparations used were preparations (A), (D), (E) and (H) containing of 0.1%, 0.25%, 0.5% and 1% of clidanac, respectively, and preparations (f), (g), (h) and (i) containing 0.1%, 0.25%, 0.5% and 1% of indomethacin, respectively. In the control group, any preparation was not administered but massage alone was performed.
For further comparison, oral preparations respectively containing clidanac and indomethacin were prepared by the procedure of Reference Example 4 and orally administered in a clidanac dose of 2 mg/kg and in an indomethacin dose of 2 mg/kg, respectively, and the animals were treated in the same manner as mentioned above.
The rate of suppression was calculated using the follwoing formula: [formula] where C is the area of dye leakage for the control group and T is the area of dye leakage for the drug-treated group.

SMILES | Area of dye leakage [mm^2] | Suppression rate [%]
O=C(O)C1CCc2cc(C3CCCCC3)c(Cl)cc21 (stereo not shown) [Clidanac, 6-chloro-5-cyclohexylindane-1-carboxylic acid] | 193.8 ± 12.1 | 17.4
COc1ccc2c(c1)c(CC(=O)O)c(C)n2C(=O)c1ccc(Cl)cc1 [Indomethacin] | 195.7 ± 13.6 | 16.6
